Experimental data reported in patent publication US20100227895A1, “METHOD FOR TREATING EQUINE LAMINITIS” (MPCO- THE MAGIC POWDER COMPANY, priority 2009, published 2010).

Legend:
NE synthesis = settings: analogous to the KM of the overall reaction; read-out: concentration of tyrosine at the half-maximal rate of NE synthesis; cited from earlier work
equine laminitis = assay: Oral treatment of horses with laminitis (case examples); assay type: in vivo, horse
Protocol: The preferred form of practicing the present method will now be described for a horse weighing approximately 500 kg. In practicing the present method, the four main ingredients that are administered to prevent, treat and/or cure laminitis are: choline bitartrate, L-tyrosine, Niacin, and d-Calcium Pantothenate. These ingredients may be administered in corresponding approximate ratios of 40:41:8:16 (by weight). In the preferred embodiment, an approximately 35 day supply of the treatment includes 80 grams of choline bitartrate, 82 grams of L-tyrosine, 16 grams of niacin, and 32 grams of d-calcium pantothenate. Each dose for oral administration contains approximately 1127.5 mg of choline bitartrate, 1155.6 mg of L-tyrosine, 225.5 mg of niacin, and 451.1 mg of d-Calcium pantothenate. Preferably, this dosage is administered twice per day to an affected horse.
A quarter-horse mare first experienced laminitis at age 5 after exposure to septic waste from a failing septic field. This first bout with laminitis lasted roughly two years. At age 9, the mare was left on a heavily grazed pasture for one day and developed laminitis, the second onset of the disease during its life, presumably from exposure to fructans in grass. Transportation of the mare exacerbated the laminitis symptoms. The mare recovered gradually, but spent a lot of time lying down. […]

[1] = biological target: tyrosine hydroxylase (TH) (Homo sapiens, UniProt P07101); settings: concentration of T at which the reaction proceeds at 50% of the maximal rate; cited from earlier work
Sequence of tyrosine hydroxylase (TH) (P07101 whole entry): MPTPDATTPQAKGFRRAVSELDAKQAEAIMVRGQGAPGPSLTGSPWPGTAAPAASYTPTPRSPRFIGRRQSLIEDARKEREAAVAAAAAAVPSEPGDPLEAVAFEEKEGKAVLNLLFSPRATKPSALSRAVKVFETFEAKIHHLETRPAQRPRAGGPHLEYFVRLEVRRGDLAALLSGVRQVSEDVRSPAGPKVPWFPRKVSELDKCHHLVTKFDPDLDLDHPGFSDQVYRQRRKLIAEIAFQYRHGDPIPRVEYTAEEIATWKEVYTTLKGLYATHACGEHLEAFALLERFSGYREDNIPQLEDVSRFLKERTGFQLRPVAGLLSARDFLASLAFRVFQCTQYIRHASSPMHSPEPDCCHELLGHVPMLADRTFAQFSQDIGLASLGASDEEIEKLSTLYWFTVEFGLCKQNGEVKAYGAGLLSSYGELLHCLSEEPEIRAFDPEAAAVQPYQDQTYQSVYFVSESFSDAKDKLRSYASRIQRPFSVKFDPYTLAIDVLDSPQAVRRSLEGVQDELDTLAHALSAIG

Compound: N[C@@H](Cc1ccc(O)cc1)C(=O)O [tyrosine, 4-hydroxyphenylalanine]
- EC50 (NE synthesis): 10 to 40 µM
- condition of the mare with laminitis (equine laminitis; Example 1, quarter-horse mare, second onset of laminitis, initial dosing, daily for nearly 90 days): improved the condition
- recurrence of laminitis (equine laminitis; Example 2, ten year-old mare, recommended dosage after the bout): did not re-experience laminitis
- Km [1]: ~25 µM
